Assay results taken from patent US20050113443A1, “Modulation of airway inflammation in patients with cystic fibrosis and related diseases” (priority 2003, published 2005).

Columns and labels:
[1] = system: primary human bronchial epithelial cells; test: P. aeruginosa-induced IL-8 secretion by primary human bronchial epithelial cells (ELISA); format: cell-based; conditions: cells treated 2 h with analogue (nanomolar concentrations), stimulated 1 h with 3×10^7 cfu P. aeruginosa PA01, supernatants after 4 more hours, vs vehicle (0.01% ethanol), FIG. 2, P<0.002
Experimental: We further examined whether LX analogues were able to inhibit P. aeruginosa-induced IL 8 production from primary human bronchial epithelial cells. Primary bronchial epithelial cells from non-smokers obtained from Clonetics/Cambrex were grown until subconfluent, treated for 2 h with LXA4 analogue or vehicle control (0.01% ethanol), stimulated for 1 h with 3×10^7 cfu of P. aeruginosa strain PA01, and subsequently washed. Cell-free supernatants were harvested after 4 more hours of incubation, and analyzed by ELISA for IL-8 secretion. For this purpose we used the metabolically stable analog 15-epi-16-(p-fluorophenoxy) LXA4 methyl ester, prepared according to Example 2. […] Primary human bronchial epithelial cells were pretreated with an LXA4 analogue (15-epi-16-[p-fluorophenoxy LXA4] methyl ester) or vehicle control and subsequently stimulated with P. aeruginosa strain PA01. IL-8 was measured in cell-free supernatants. Mean IL-8 production was 1620±116 pg/ml in vehicle control cultures.

[2] = system: C57BL/6 mice challenged intratracheally with mucoid P. aeruginosa (strain M57-15); test: Mouse model of chronic airway inflammation and infection of cystic fibrosis (mucoid P. aeruginosa entrapped in agarose beads); format: in vivo; conditions: vs vehicle controls
Text: Chronic infections with mucoid P. aeruginosa tend to persist in patients with CF. In turn, chronic airway infection with mucoid P. aeruginosa is a major cause of morbidity and mortality among CF patients. In order to achieve chronic airway infections with P. aeruginosa in murine models, it is necessary to enmesh the bacteria with an immobilizing agent such as agar (Pediatr Pulmonol 30:413.; Lab Animals 36:291). This also provides an experimental mimic of the growth of P. aeruginosa as a biofilm, which appears to be its predominant state in the CF airway (Pediatr Pulmonol 30:413, 2000; Pediatr Res 22:698, 1987; Trends Microbiol 9:50, 2001). C57/B16 mice are used, as the inflammatory response to P. aeruginosa infection of this moderately susceptible strain is a fair mimic of that seen in CF patients (Pediatr Pulmonol 30:413). Indeed, in C57/B16 mice, agar bead delivery of P. aeruginosa leads to histopathological changes, including bronchiectasis, similar to those found in patients with CF (Pediatr Pulmonol 30:413, 2000). This chronic model allows for the characterization of the effects of LX analogues on chronic, ongoing airway infection and inflammation using a model that is highly relevant to, and a reasonable mimic of, the CF airway.
Modifications were made in a previously described model (van Heeckeren, A. M. etal Lab Anim 36, 291, 2002). 6-8 week old female C57BL/6 mice were immunized in the dermis of the ear with heat-killed P. aeruginosa (mucoid strain M57-15) in incomplete Freund's adjuvant 10 days prior to P. aeruginosalagar bead challenge. Mice were challenged intratracheally (non-traumatically as previously described, Wills-Karp, M. et al. Science 282, 2258, 1998) with 3×10^4 P. aeruginosa (mucoid strain M57-15) entrapped in […] agarose beads. Beginning 1 day prior to such challenge, mice were treated with an LXA4 analogue (15-epi-16-[p-fluorophenoxy LXA4] methyl ester) by oral administration, through placing 10 μg/ml of the analogue in the drinking water (Gewirtz, A. T. et al. J Immunol 168, 5260, 2002), supplemented with a single daily intravenous dose of 1 μg by tail vein. Controls received trace volumes (identical to that administered to lipoxin analogue-treated mice) of ethanol in drinking water and intravenously. Mice were weighed daily. Five days after P. aeruginosa/agar bead challenge, mice were sacrificed, BAL was performed, and lungs were harvested for measurement of lung Pseudomonas burden and myeloperoxidase by standard techniques (van Heeckeren, A. M. et al Lab Anim 36, 291, 2002; Wills-Karp, M. et al. Science 282, 2258, 1998; Andrews, P. C. et al. Anal Biochem 127, 346, 1982). Animal care was provided in accordance with National Institutes of Health guidelines. This was done in order to model an additional immunological feature of individuals with cystic fibrosis and P. aeruginosa colonization/infection: potent adaptive immune responses, marked by anti-pseudomonal antibodies and T cells reactive with pseudomonal proteins.
C57/B16 mice were challenged intratracheally (non-traumatically as previously described [Science 282:2258, 1998; Nature Immunol 1:221,2000]) with 3×10^4 P. aeruginosa (mucoid strain M57-15) entrapped in agar beads (70-200 uM). […]

`COC(=O)CCC[C@H](O)[C@H](O)/C=C/C=C/C=C\C=C\[C@H](O)COc1ccc(F)cc1` [(5S, 6R, 15S)-trihydroxy-16-(4-fluorophenoxy)-hexadeca-(7E, 9E, 11Z,13E)-tetraenoic acid methyl ester] was tested, and the “P. aeruginosa-mediated IL-8 secretion” value [1] was “inhibits”, the “P. aeruginosa-mediated IL-8 secretion” value ([1]; listed as LXA4 analogue) was “significantly inhibits” and the weight loss ([2]; 10 μg/ml in drinking water plus 1 μg i.v. daily from 1 day before challenge, weighed daily, FIG. 3) was “less weight loss”. For the same compound, the “recovery of lost weight” value ([2]; 10 μg/ml in drinking water plus 1 μg i.v. daily, weighed daily, FIG. 3) was “earlier and more complete recovery of lost weight”, the “bronchoalveolar lavage total cell counts” value ([2]; BAL five days after challenge, FIG. 4A) was “significant suppression of total cell counts” and the “airway neutrophilia (BAL neutrophils)” value ([2]; BAL five days after challenge, FIG. 4B) was “significant inhibition of airway neutrophilia”. For the same compound, the airway lymphocyte counts ([2]; BAL five days after challenge, FIG. 4C) was “significant increase in airway lymphocyte counts”, the “percentage of airway macrophages” value ([2]; BAL five days after challenge, FIG. 4D) was “increase in the percentage of airway macrophages” and the “neutrophil/lymphocyte ratio in the airway” value ([2]; BAL five days after challenge, FIG. 4E) was “significant decrease”. For the same compound, the “neutrophil/macrophage ratio in the airway” value ([2]; BAL five days after challenge, FIG. 4F) was “significant decrease”, the “whole lung P. aeruginosa burden” value ([2]; lungs harvested five days after challenge, quantitative microbiological techniques, FIG. 6) was “decrease in lung bacterial burden” and the “whole lung myeloperoxidase levels (neutrophil accumulation in the lung parenchyma)” value ([2]; lungs harvested five days after challenge, FIG. 5) was “significantly reduced neutrophil accumulation in the lung parenchyma”.
